Data taken from patent US7326825B2, “Methods of ungulate nuclear transfer” (Roslin Institute (Edinburgh), priority 1995, dated 2008).

Tests used:
[1] = tested on: enucleated oocytes fused to primary bovine fibroblasts; assay: Pronuclear formation in enucleated oocytes fused to primary bovine fibroblasts and subsequently activated; format: cell-based; parameters: percentage of activated oocytes containing 1 PN / percentage of activated oocytes containing 2 PN / percentage of activated oocytes containing 3 PN / percentage of activated oocytes containing 4 PN / percentage of activated oocytes containing >4 PN: concentration or dose not given beside the values
ovine oocytes = assay: Nuclei formation upon activation of reconstructed ovine oocytes matured in vivo; format: cell-based; details: donor cells introduced in the absence of activation
Description: Similar observations to those in Example 1 have also been made in ovine oocytes which have been matured in vivo. Freshly ovulated oocytes can be retrieved by flushing from the oviducts of superstimulated ewes 24 hours after prostaglandin treatment. The use of calcium magnesium free PBS/1.0% FCS as a flushing medium prevents oocyte activation. Oocytes can be enucleated in calcium free medium and donor cells introduced as above in the absence of activation. No organised spindle is observed, multiple nuclei are formed upon subsequent activation and this may be suppressed by nocodazole treatment.

[2] = nocodazole 1 hour prior to and 6 hours following activation, fused 24 hpm, activated 42 hpm, scored 12 hours post activation

COC(=O)Nc1nc2ccc(C(=O)c3cccs3)cc2[nH]1 [nocodazole]
formation of micronuclei ([1]; incubation of activated oocytes for 5 hours, 1 hour prior to and following the activation stimulus): prevents the formation of micronuclei
percentage of activated oocytes containing 1 PN [1, 2]: 100%
percentage of activated oocytes containing 2 PN [1, 2]: 0%
percentage of activated oocytes containing 3 PN [1, 2]: 0%
percentage of activated oocytes containing 4 PN [1, 2]: 0%
percentage of activated oocytes containing >4 PN [1, 2]: 0%
formation of multiple nuclei upon subsequent activation (ovine oocytes): suppressed
